{
  "source": "patent US9645154B2",
  "about": "“Method for detecting cancer cell” (ARKRAY, Inc., priority 2010, dated 2017)",
  "key": {"[1]": {"system": "human fibrosarcoma cell HT-1080", "experiment": "Aminolevulinic acid labeling with or without iron ion and reducing agent (positive rate)", "assay_type": "cell-based", "conditions": "0.3 mM, 37° C., 60 min", "excerpt": "In accordance with the conventional method, human fibrosarcoma cell HT-1080 (DS Pharma Biomedical Co., Ltd.) and normal human dermal fibroblast cell NHDF (Lonza) in culture were harvested with trypsin (Invitrogen). The cell suspension of the harvested cancer cells was centrifuged, and the supernatant was removed. The cells were then resuspended with Dulbecco's PBS (+) (Nissui Pharmaceutical Co., Ltd.) and centrifuged, and the supernatant was removed again.\nThe number of the cells was counted using a hemacytometer in accordance with the conventional method, and then 10^5 to 10^6 cells per sample (cell suspension) was aliquoted. The sample was centrifuged to remove the supernatant. In the case an iron ion and a reducing agent were added, 0.3 mM of aminolevulinic acid (trade name: 5-AMINOLEVULINATE HYDROCHLORIDE, Cosmo Bio Co., Ltd.), 0.3 mM of FeCl2 and 0.3 mM of ascorbic acid dissolved in Dulbecco's PBS (+) were added thereto, and the cells were suspended well. In the case an iron ion and a reducing agent were not added, 0.3 mM of aminolevulinic acid dissolved in Dulbecco's PBS (+) was added singly, and the cells were suspended well. Each of the mixture was then allowed to react at 37° C. for 60 minutes. […]\nThe fluorescence filter set: EX (excitation wavelength) 402±7.5, DM 430 or longer, BA (fluorescence wavelength) 625±15."}, "[2]": {"system": "human fibrosarcoma cell line HT1080", "experiment": "Labeled sugar incorporation, fluorescence microscopy image analysis (positive rate)", "assay_type": "cell-based", "conditions": "for Positive rate (Cancer cells): Fibrosarcoma, threshold value 370; for Positive rate of cancer cells: fibrosarcoma cell line", "excerpt": "In accordance with the conventional method, cultured human fibrosarcoma cell line HT1080 (DS Pharma Biomedical Co., Ltd.) was harvested with trypsin (Invitrogen). The human gastric cancer cell line SNU-1 (ATCC), which is a suspension cell line, was directly harvested without any trypsin treatment. The cell suspension of the harvested cancer cells was centrifuged, and the supernatant was removed. The cells were resuspended with Dulbecco's PBS (−) (Nissui Pharmaceutical Co., Ltd.) and centrifuged, and the supernatant was removed again.\nWhen performing the hemolyzing treatment, the blood cell fraction collected as described above was hemolyzed using ammonium chloride (STEMCELL Technologies) according to the manufacture's manuals.\nThe number of the cells was counted for each cell line using a hemacytometer in accordance with the conventional method, and then 10^5 to 10^6 cells per sample (cell suspension) was aliquoted. Each of the sample was centrifuged to remove the supernatant. Subsequently, 2-NBDG (Wako Pure Chemical Industries, Ltd.; at the final concentration given in Table 3 or 4) dissolved in Dulbecco's PBS (−) was added thereto, and the cells were suspended well. After the reaction, Dulbecco's PBS (−) was added to the mixture, and the resultant was centrifuged to remove the supernatant. The cells were resuspended with Dulbecco's PBS (−) and centrifuged, and the supernatant was removed again. The steps of resuspending cells with Dulbecco's PBS (−), centrifuging and removing the supernatant were then repeated 2 to 3 times, thereby washing the cells thoroughly. The cells were resuspended with Dulbecco's PBS (−), the concentration thereof was adjusted, and then added dropwise to a 384-well plate. The plate was centrifuged to spin down the cells. The image was captured with a fluorescence microscope (Nikon Corp.) using B-2A filter combination (Nikon Corp.). The B-2A set covers the following wavelengths. EX (excitation wavelength): 475±15 nm, DM: 505 nm or longer, BA (fluorescence wavelength) 520 nm or longer.\nThe acquired images were analyzed using an image analysis software NIS-ELEMENTS (trade name, Nikon Corp.) to evaluate the fluorescence intensity of the cell. […]\nIn a manner similar to Example 2, each of human breast adenocarcinoma cells (cell line name: MCF-7; DS Pharma Biomedical Co., Ltd.), human colon adenocarcinoma cells (cell line name: SW620; DS Pharma Biomedical Co., Ltd.), human prostate cancer cells (cell line name: PC3; DS Pharma Biomedical Co., Ltd.), human alveolar epithelial cancer cells (cell line name: NCI-H358; DS Pharma Biomedical Co., Ltd.), human gastric cancer cells (cell line name: SNU-1; ATCC) and human fibrosarcoma cells (cell line name: HT1080; DS Pharma Biomedical Co., Ltd.) was detected with the labeled sugar (2-NBDG)."}, "[3]": {"conditions": "hemolyzed, 10 mM, 5 min, 23° C."}},
  "data": [
    {"compound": "NCC(=O)CCC(=O)O", "note": "[aminolevulinic acid, 5-amino-4-oxopentanoic acid]", "values": [
      {"measurement": "Positive rate (Fibroblast sarcoma cell (HT-1080))", "setting": "[1]; Ascorbic acid 0, FeC12 0", "result": 97.3, "unit": "%"},
      {"measurement": "Positive rate (Fibroblast sarcoma cell (HT-1080))", "setting": "[1]; Ascorbic acid 0.3 mM, FeC12 0.3 mM", "result": 79.3, "unit": "%"}
    ]},
    {"compound": "O=[N+]([O-])c1ccc(N[C@H]2C(O)O[C@H](CO)[C@@H](O)[C@@H]2O)c2nonc12", "note": "(stereo partly drawn) [2-NBDG, 2-[N-(7-nitrobenz-2-oxa-1,3-diazol-4-yl)amino]-2-deoxy-D-glucose]", "values": [
      {"measurement": "Positive rate (Cancer cells)", "setting": "[2]; [3]", "result": 100.0, "unit": "%"},
      {"measurement": "Positive rate (Cancer cells)", "setting": "[2]; single, Glucose conc.: 1 mM, Temp.: 37° C., Time: 30 min", "result": 100.0, "unit": "%"},
      {"measurement": "Positive rate of cancer cells", "setting": "[2]; Mean luminance, hemolyzed, 10 mM, 5 min, 23° C., threshold value 436", "result": 100.0, "unit": "%"},
      {"measurement": "Positive rate of cancer cells", "setting": "[2]; Total luminance, hemolyzed, 10 mM, 5 min, 23° C., threshold value 35,000", "result": 90.7, "unit": "%"},
      {"measurement": "Positive rate (Fibrosarcoma cell line)", "setting": "[2]; [3]", "result": 100.0, "unit": "%"},
      {"measurement": "Positive rate (HT1080 cells)", "setting": "[2]; hemolyzed, 0.1 mM, 37° C., 30 min, threshold value 380", "result": 33.3, "unit": "%"},
      {"measurement": "Positive rate (HT1080 cells)", "setting": "[2]; hemolyzed, 1 mM, 37° C., 30 min, threshold value 520", "result": 73.1, "unit": "%"},
      {"measurement": "Positive rate (HT1080 cells)", "setting": "[2]; hemolyzed, 10 mM, 37° C., 30 min, threshold value 1150", "result": 95.0, "unit": "%"},
      {"measurement": "Positive rate (HT1080 cells)", "setting": "[2]; hemolyzed, 4° C., 10 mM, 5 min, threshold value 640", "result": 79.0, "unit": "%"},
      {"measurement": "Positive rate (HT1080 cells)", "setting": "[2]; hemolyzed, 23° C., 10 mM, 5 min, threshold value 640", "result": 81.1, "unit": "%"},
      {"measurement": "Positive rate (HT1080 cells)", "setting": "[2]; hemolyzed, 37° C., 10 mM, 5 min, threshold value 750", "result": 89.4, "unit": "%"},
      {"measurement": "Positive rate (HT1080 cells)", "setting": "[2]; hemolyzed, 5 min, 10 mM, 37° C., threshold value 570", "result": 119.8, "unit": "%"},
      {"measurement": "Positive rate (HT1080 cells)", "setting": "[2]; hemolyzed, 30 min, 10 mM, 37° C., threshold value 880", "result": 107.8, "unit": "%"},
      {"measurement": "Positive rate (HT1080 cells)", "setting": "[2]; hemolyzed, 60 min, 10 mM, 37° C., threshold value 750", "result": 102.9, "unit": "%"},
      {"measurement": "Positive rate (Fibrosarcoma cell line)", "setting": "[2]; not hemolyzed, 10 mM, 5 min, 23° C.", "result": 92.6, "unit": "%"},
      {"measurement": "Positive rate (HT1080 cells)", "setting": "[2]; without hemolyzing treatment, 0.1 mM, 37° C., 30 min, threshold value 280", "result": 51.8, "unit": "%"},
      {"measurement": "Positive rate (HT1080 cells)", "setting": "[2]; without hemolyzing treatment, 1 mM, 37° C., 30 min, threshold value 330", "result": 89.5, "unit": "%"},
      {"measurement": "Positive rate (HT1080 cells)", "setting": "[2]; without hemolyzing treatment, 10 mM, 37° C., 30 min, threshold value 450 (concentration series)", "result": 90.0, "unit": "%"},
      {"measurement": "Positive rate (HT1080 cells)", "setting": "[2]; without hemolyzing treatment, 4° C., 10 mM, 5 min, threshold value 310", "result": 94.9, "unit": "%"},
      {"measurement": "Positive rate (HT1080 cells)", "setting": "[2]; without hemolyzing treatment, 23° C., 10 mM, 5 min, threshold value 360", "result": 92.6, "unit": "%"},
      {"measurement": "Positive rate (HT1080 cells)", "setting": "[2]; without hemolyzing treatment, 37° C., 10 mM, 5 min, threshold value 390", "result": 101.5, "unit": "%"},
      {"measurement": "Positive rate (HT1080 cells)", "setting": "[2]; without hemolyzing treatment, 5 min, 10 mM, 37° C., threshold value 380", "result": 92.6, "unit": "%"},
      {"measurement": "Positive rate (HT1080 cells)", "setting": "[2]; without hemolyzing treatment, 30 min, 10 mM, 37° C., threshold value 450 (time series)", "result": 97.1, "unit": "%"},
      {"measurement": "Positive rate (HT1080 cells)", "setting": "[2]; without hemolyzing treatment, 60 min, 10 mM, 37° C., threshold value 500", "result": 98.4, "unit": "%"}
    ]}
  ]
}
